Measurements published in publication PMC10206600, “Two Distinct Thermodynamic Gradients for Cellular Metalation of Vitamin B12” (JACS Au, 2023).

Target: T1, CobNST (Rhodobacter capsulatus, UniProt D5AV09)
T1 construct: gene cobN; recombinant from E. coli BL21(DE3) pLysS; N-terminal 6xHis-tag and thrombin site on CobN (pET14b) and CobS (pET3a), CobT untagged, CobST copurified; 13 subunits; with Aerobic cobaltochelatase subunit CobS; Aerobic cobaltochelatase subunit CobT
T1 sequence (D5AV09 1-1085): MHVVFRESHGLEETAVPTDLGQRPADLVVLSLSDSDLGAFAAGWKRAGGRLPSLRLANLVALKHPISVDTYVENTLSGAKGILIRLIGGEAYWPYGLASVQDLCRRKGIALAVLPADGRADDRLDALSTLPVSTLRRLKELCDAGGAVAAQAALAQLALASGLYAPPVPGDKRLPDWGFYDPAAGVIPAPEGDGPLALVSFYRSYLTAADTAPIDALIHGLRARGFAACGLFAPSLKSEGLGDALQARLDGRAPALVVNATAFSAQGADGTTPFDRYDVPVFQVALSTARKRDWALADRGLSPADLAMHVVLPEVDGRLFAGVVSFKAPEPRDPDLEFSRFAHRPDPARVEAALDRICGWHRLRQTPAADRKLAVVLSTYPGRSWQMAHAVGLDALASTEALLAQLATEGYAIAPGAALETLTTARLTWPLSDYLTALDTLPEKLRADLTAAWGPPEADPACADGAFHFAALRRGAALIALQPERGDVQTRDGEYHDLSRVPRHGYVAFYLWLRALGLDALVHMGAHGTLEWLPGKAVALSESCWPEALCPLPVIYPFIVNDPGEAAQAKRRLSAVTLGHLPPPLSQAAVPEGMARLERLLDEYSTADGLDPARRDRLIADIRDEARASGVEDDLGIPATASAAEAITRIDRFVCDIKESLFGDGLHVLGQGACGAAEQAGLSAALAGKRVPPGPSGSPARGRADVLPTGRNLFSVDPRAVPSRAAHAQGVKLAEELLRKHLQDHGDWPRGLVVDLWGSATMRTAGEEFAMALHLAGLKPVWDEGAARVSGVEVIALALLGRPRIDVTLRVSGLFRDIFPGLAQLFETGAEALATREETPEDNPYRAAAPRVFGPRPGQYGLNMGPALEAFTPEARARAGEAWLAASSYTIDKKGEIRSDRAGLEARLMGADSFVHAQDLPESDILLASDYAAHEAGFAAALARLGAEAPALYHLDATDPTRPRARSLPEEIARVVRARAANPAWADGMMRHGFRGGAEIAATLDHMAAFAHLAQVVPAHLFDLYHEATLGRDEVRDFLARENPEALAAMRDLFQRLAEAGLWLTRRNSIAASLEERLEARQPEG
T1 sequence (D5AQ14 1-324 partner): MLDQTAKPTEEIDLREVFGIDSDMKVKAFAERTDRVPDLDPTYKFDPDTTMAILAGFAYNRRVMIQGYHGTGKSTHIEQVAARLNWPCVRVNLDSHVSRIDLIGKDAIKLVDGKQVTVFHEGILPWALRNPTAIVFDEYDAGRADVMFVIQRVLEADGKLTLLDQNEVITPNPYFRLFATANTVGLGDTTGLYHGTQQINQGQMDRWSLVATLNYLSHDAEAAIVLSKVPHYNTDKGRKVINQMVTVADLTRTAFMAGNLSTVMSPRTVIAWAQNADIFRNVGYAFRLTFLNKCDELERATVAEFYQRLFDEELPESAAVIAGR
T1 sequence (D5AQ13 1-624 partner): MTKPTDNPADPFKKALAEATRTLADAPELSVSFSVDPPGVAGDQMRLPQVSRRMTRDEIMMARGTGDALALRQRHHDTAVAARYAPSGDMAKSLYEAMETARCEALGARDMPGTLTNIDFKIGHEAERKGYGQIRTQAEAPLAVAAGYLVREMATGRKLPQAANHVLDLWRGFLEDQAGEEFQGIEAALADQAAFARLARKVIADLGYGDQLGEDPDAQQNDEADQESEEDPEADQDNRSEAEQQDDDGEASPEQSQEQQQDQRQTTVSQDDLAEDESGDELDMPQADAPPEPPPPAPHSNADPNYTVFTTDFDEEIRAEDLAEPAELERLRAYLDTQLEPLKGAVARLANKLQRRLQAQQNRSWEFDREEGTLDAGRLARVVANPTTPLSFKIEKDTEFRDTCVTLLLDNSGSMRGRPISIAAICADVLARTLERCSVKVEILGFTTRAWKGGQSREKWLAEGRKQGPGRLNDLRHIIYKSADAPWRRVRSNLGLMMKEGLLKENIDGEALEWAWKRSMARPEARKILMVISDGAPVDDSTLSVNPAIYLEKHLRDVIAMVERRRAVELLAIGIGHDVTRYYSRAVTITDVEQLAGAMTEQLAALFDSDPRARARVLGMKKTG
Assay: UV-visible absorbance at […] nm, Co(II) chelation
Assay type: biochemical
Details: 10 uM HBAD, 100 uM total Co(II), 10 mM MgCl2, 5 mM ATP, 50 mM Hepes pH 7.0, 100 mM NaCl, 20-25 C, anaerobic

C/C1=C2N=C(/C=C3\N/C(=C(/C)C4=N[C@@](C)([C@@H]5N=C1[C@](C)(CCC(=O)O)[C@H]5CC(=O)O)[C@@](C)(CC(N)=O)[C@@H]4CCC(=O)O)[C@@](C)(CC(N)=O)[C@@H]3CCC(=O)O)C(C)(C)[C@@H]/2CCC(=O)O [HBAD, hydrogenobyrinic acid a,c-diamide]
UV-visible absorbance at 330 nm, Co(II) chelation: Metalation of HBAD to form cobyrinic acid a,c-diamide (CBAD) was followed by changes in the UV–visible absorbance
